The text below walks through data of patent publication US20220339178A1, “COMPOSITIONS AND METHODS FOR COGNITIVE PROTECTION OF POLLINATORS AGAINST PESTICIDES” (priority 2019, published 2022).

Assay type in all cases: in vivo
For assay [1], the system named is Honey bee foragers (Apis mellifera scutellata). Nature of the assay: Sucrose responsiveness (sensory sensitivity) of honey bees: flavonoids vs deltamethrin. To be noted: for sensitivity (sucrose responsiveness, total PER score) relative to Control bees: honey bees, rutin 1 μM, kaempferol 131.7 μM or both for one day, 17.81 μM deltamethrin next day, pooled score. The protocol:
Honey bee foragers (Apis mellifera scutellata) were captured from established hives at the Apiary of the Universidad del Rosario (Bogota, Colombia) between 08:00 h and 10:00 h. Bees were ice-anesthetized and harnessed in plastic tubes and maintained under laboratory conditions for the duration of the experiment (three days).
On the first day, bees were randomly allocated to one of four treatments administered as two doses (morning: 20 μL; afternoon:10 μL): i) Control (1M sucrose solution), ii) Rutin 1 μM (Sigma-Aldrich R5143), iii) Kaempferol 131.7 μM (Sigma-Aldrich K0133), iv) Rutin-Kaempferol composition (final concentration of […] rutin and 131.7 μM kaempferol). All solutions were diluted in 1M sucrose solution to the concentrations described above. The next day, bees from each group were randomly assigned to one of two treatments: […] of 1M sucrose solution or 17.81 μM deltamethrin (Dinastia Bayer). Thus, bees belonged to one of eight treatments: i) Sucrose water (Control), ii) Rutin (Rut), iii) Kaempferol (Kaemp), iv) Kaempferol+Rutin (Kaemp+Rut), v) Deltamethrin (Delta), vi) Rutin+Deltamethrin (Rut+Delta), vii) Kaempferol+Deltamethrin (Kaemp+Delta), viii) Kaempferol+Rutin+Deltamethrin ((Kaemp+Rut)+Delta). All solutions were diluted in 1M sugar water to the concentrations described above.
Sensory sensitivity was evaluated using responsiveness to sucrose, a proxy of resource exploitation by foragers. On the second day, bees of the eight treatments described above were tested five times for their response threshold (0 h, 1 h, 2 h, 3 h and 4 h). The first measure (0 h) was done prior to pesticide administration. Bees were tested with an ascending sucrose concentration of 0.1, 0.3, 1, 3, 10 and 30% (w/w). Between each concentration, the bees were presented with pure water as a control for potential sensitization or habituation (Pankiw et al., Behav Ecol Sociobiol (2000) 47:265-267). The inter-trial time between the presentation of each sucrose concentration was at least 4 minutes. For each presentation, the reflexive extension of the proboscis (tongue) of the bee, after antennal stimulation with the solution was recorded. After the last measure (4 h), bees were fed with 10 μL of 1M sucrose solution and maintained until the next day for a final test (24 hours after pesticide administration).
For each bee, a responsiveness score was determined (0-7) 0 h, 1 h, 2 h, 3 h, 4 h and 24 h, and a pooled scored (0-42). Normal distribution of the scores was tested using Shapiro-Wilk W Test for the null hypothesis that data is from a Normal distribution. […] Thus, non-parametric tests were used for comparisons across treatments and for multiple comparisons. Overall changes of responses across different concentrations were evaluated using repeated-measured MANOVA. Error associated with multiple comparisons was controlled using the Two-stage sharpened False Discovery Rate, and corrected p-values (q-values) are presented. Data were explored for outliers using a single run of Robust Fit outliers test. All analyses were conducted using JMP v.14 (SAS Institute Inc.)

Assay [2] shares this test system. Briefly: Classical conditioning of PER in honey bees: rutin, kaempferol, p-coumaric acid vs fipronil. Particulars: for learning score relative to Control bees: score 0-10, 1 μM rutin, 131 μM kaempferol, 200 μM p-coumaric acid or Mix twice a day for three days, 228 nM fipronil 10 μL three hours before training; for latency of response relative to Control bees: Dunnett's method. The method, then: Honey bee foragers (Apis mellifera scutellata) were captured from established hives at the Apiary of the Universidad del Rosario (Bogota, Colombia) between 08:00 h and 10:00 h. Bees were ice-anesthetized and harnessed in plastic tubes and maintained under laboratory conditions for the duration of the experiment (five days). Food was provided twice a day in a volumen of 10 μL and varied in composition according to experimental treatments.
Bees were randomly allocated to one of the following treatments administered twice a day for three consecutive days (all concentrations are final):
Control: 1M sucrose water (10 μL)
Rut: 1 μM rutin (Sigma-Aldrich: R5143)-1M sugar water (10 μL)
Kaemp:131 μM kaempferol (Sigma-Aldrich:K0133)+1M sugar water (10 μL)
p-Cou A: 200 μM p-coumaric acid (Sigma-Aldrich:C9008) diluted in 1M sugar water (10 μL)
Mix: 1 μM rutin, 131 μM kaempferol and 200 μM p-Coumaric acid): Bees fed with composition diluted in 1M sugar water (10 μL) fed twice a day for three days
On the fourth day, bees were randomly assigned to one of two treatments three hours before training:
Fipronil: 10 μL of 228 nM Fipronil (Astuto Invesa) in 1M sucrose water
Sucrose solution: 10 μL 1M sucrose water
Thus, bees belong to one of ten treatments: Control, Kaemp, Rut, p-Cou A, Mix, Fipro, Kaemp+Fipro, Rut+Fipro, p-Cou A+Fipro, Mix+Fipro.
Bees were trained using classical conditioning of the proboscis extension response (PER). Briefly, bees received a soft current of clean air for 15 seconds to allow bees to accommodate. Then a soft current of 1-hexanol (Sigma-Aldrich: 471402) was injected for 10 seconds. Six seconds after injection of 1-hexanol, one of the antennae was stimulated with sugar water (1.5M), which leads to the reflexive extension of the proboscis, and the bee was allowed to drink for 4 seconds. Thus, the reward and the stimulus overlapped for four seconds. This sequence, recognized as a training trial, was repeated eleven times. Time was determined using a metronome (2 Hz). Memory retention was tested 24 hours after the eleven training trials. […] 12 bees were trained each session. Training was conducted by an experimenter blind to treatment.
(§1) Learning for each individual was quantified as the number of conditioned PER responses across the trials. Thus, for each bee a learning score between zero and ten (0-10) was recorded.
(§2) Multiple comparisons were then run comparing learning score relative to Control bees using a non-parametric one or two-tailed Steel Method depending upon predictions. These comparisons informed us about the predicted impairment produced by the insecticides, the predicted innocuous effect of the flavonoid and the potential level of protection. Error due to multiple comparisons was controlled using the False Discovery Rate method (FDR-two stage sharpened method). In all cases corrected p-values (q-values) are presented.
(§3) Memory retention was quantified as a nominal variable (yes/no). Data were compared across treatments using a Chi-square test, followed by multiple comparisons of all treatments vs. Control. Error due to multiple comparisons was controlled using the FDR as indicated above. In all cases corrected p-values (q values) are presented.
Latency was quantified as a continuous variable between 0.5 s and 10 s. Data were compared across treatments using an ANOVA following a Log transformation to normalize the distribution (Shapiro-Wilk W Test after log transformation: p>0.05 for all treatments for the null hypothesis that data is from a normal distribution), followed by multiple comparisons between all treatments and the Control group (Dunnett's method). Error due to multiple comparisons was controlled using the FDR method as indicated above. In all cases corrected p-values (q-values) are presented.

For assay [3], the system named is bumblebee Bombus impatiens. Briefly: Olfactory conditioning of PER in bumblebees: self-administered rutin vs chronic fipronil. The protocol: One colony of the bumblebee Bombus impatiens (Koppert Inc) was kept in laboratory conditions. Bees received pollen inside the nests and foraged to a 1M sugar-water feeder outside of the nest. Bees were collected while on the feeder and iced anesthetized to then be randomly assigned to one of four plastic containers where self-administration of one of two solutions was allowed to 10 bees out of two feeders (glass vials with 500 μL of solution each): i) 1 M sucrose water or ii) 1 μM Rutin (Sigma-Aldrich R5143) diluted in 1M sucrose water. Feeders were refilled each day for three days. On the night of the third day, one of the vials was replaced by a new one with one of two solutions: i) 1 M sucrose water or ii) 1M sucrose water+6 nM fipronil. Feeders were refilled each day for three more days, thus providing a chronic exposure to fipronil. On the night of the […] day, bees were iced anesthetized and yolked restrained in plastic pipettes. Thus, bees belonged to one of four treatments:
Control: self-administered sucrose water for six days
Rut: self-administered rutin for six days
Fipro: self-administered sucrose water for three days followed by three days of self-administered sucrose water (one feeder) and fipronil (one feeder).
Rut+Fipro: self-administered rutin for three days followed by three days of self-administered rutin (one feeder) and fipronil (one feeder).
(§4) All bees were blind-trained using olfactory conditioning of the proboscis extension response (PER). Briefly, bees were exposed to a presentation of 1-nonanol (Sigma-Aldrich) for 10 s. After 7 s of the onset of the odor presentation, the antenna was stimulated with 1.5 M sugar-water to elicit the PER. Following the PER, the bee was allowed to drink sugar-water for 3 s. Each paired presentation was considered a training trial and each individual received eleven training trials with an average intertrial interval of 10 minutes. After training, all bees were fed 20 μL of 1M sugar water and maintained in plastic boxes for 24 h until the retention test. […] Twenty-four hours after the last training trial the bees were presented with the conditioned odor for 10 s.
as §1
Multiple comparisons were then run comparing learning score relative to Control bees using a non-parametric one or two-tailed Steel Method depending upon predictions. These comparisons informed us about the predicted impairment produced by the fipronil, the predicted innocuous effect of the rutin and the potential level of protection. Error due to multiple comparisons was controlled using the False Discovery Rate method (FDR-two stage sharpened method). In all cases corrected p-values (q-values) are presented.
as §3
Latency was quantified as a continuous variable between 0.5 s and 10 s. […]

The subject of assay [4] is bumblebee Bombus impatiens. Nature of the assay: Olfactory conditioning of PER in bumblebees: ad libitum rutin vs acute imidacloprid or fipronil. The method, then:
One colony of the bumblebee Bombus impatiens (Koppert Inc) was kept in laboratory conditions. Bees received pollen inside the nests and foraged to a 1M sugar-water feeder outside of the nest. Bees were collected while on the feeder and iced anesthetized to then be randomly assigned to one of two plastic containers where ad libitum self-administration of one of two solutions was allowed to 10 bees: i) 1 M sucrose water or ii) 1 μM Rutin (Sigma-Aldrich R5143) diluted in 1M sucrose water. On the night of the third day, the feeder was removed to starve the bees. On the fourth day, the bees were iced anesthetized and yolked restrained in plastic pipettes. Bees were maintained in the pipettes for the rest of the experiment (two days). One hour after harnessing, the bees were randomly assigned to one of three treatments: i) 20 μL of 1M sucrose water, ii) 20 μL of 1M sucrose water+5 nM imidacloprid, iii) 20 μL of 1M sucrose water+6 nM fipronil. Thus, overall bees belonged to one of six treatments:
Control: ad libitum sucrose water for three days and 20 μL of sucrose water before training
Rutin: ad libitum 1 μM Rutin for three days and 20 μL of sucrose water before training
Imid: ad libitum sucrose water for three days and 20 μL of 5 nM Imidacloprid in 1M sugar water 2 hours before training
Rutin+Imid: ad libitum 1 μM Rutin for three days and 20 μL of 5 nM Imidacloprid in 1M sugar water 2 hours before training
Fipronil: ad libitum sucrose water for three days and 20 μL of 5 nM fipronil in 1M sucrose water 2 hours before training
Rutin+Fipronil: ad libitum […] Rutin for three days and 20 μL of 6 nM fipronil in 1M sugar water 2 hours before training
as §4, §1, §2, §3
Latency was quantified as a continuous variable between 0.5 s and 10 s. Data were compared across treatments using an ANOVA following a Log transformation to normalize the distribution (Shapiro-Wilk W Test after log transformation: p>0.05 for all treatments for the null hypothesis that data is from a normal distribution), followed by multiple comparisons between all treatments and the Control group. Error due to multiple comparisons was controlled using the FDR method as indicated above. […]

Where [5] appears, read: bumblebees, 24 h retention test.

SMILES strings stand for the structures.

As for `CC1(C)[C@H](C(=O)O[C@H](C#N)c2cccc(Oc3ccccc3)c2)[C@@H]1C=C(Br)Br` [Deltamethrin], the “sensitivity 24 h after administration of the insecticide relative to Control bees” value in assay [1] (24 h) is reported as “lowest sensitivity”. In assay [1] (after 4 hours), the “bees responding to 30% sucrose water” value was “less than 30%”. Moreover, the “improvement in response to 30% sucrose water” value in assay [1] (after 24 hours) was determined as 10%. In addition, the “bees responsive to 30% sucrose-water” value in assay [1] (after one hour) is given as “less than 40%”. The “sensitivity (sucrose responsiveness, total PER score) relative to Control bees” value in assay [1] is recorded as “significantly lower”.

As for `N#Cc1nn(-c2c(Cl)cc(C(F)(F)F)cc2Cl)c(N)c1[S+]([O-])C(F)(F)F` (stereo not shown) [Fipronil], in assay [2] (24 h retention), the “proportion difference Control minus treatment for a PER response (Adjusted Wald test)” value was found to be 0.545. The “bees exhibiting a conditioned response after 24 h” value was “None” in assay [2] (honey bees, 24 h retention test); 33.3% in assay [3] (setting [5]); 34.6% in assay [4] (setting [5]). Besides, the “learning score relative to Control bees” value is listed as “significantly lower” in assay [2] (honey bees); “significantly lower” in assay [3] (bumblebees, score 0-10, self-administered 1 μM rutin six days, 6 nM fipronil feeder for the last three days (chronic)); “significantly lower” in assay [4] (bumblebees, score 0-10, ad libitum 1 μM rutin three days, 5 nM imidacloprid or 6 nM fipronil 20 μL 2 hours before training). Further, the “odds of remembering for Control bees relative to Fipro bees” value in assay [3] (24 h retention) is on record as 8.7 times. The “proportion difference Control-Fipro for a PER response (Adjusted Wald test)” value in assay [3] (24 h retention) is 0.48. The “odds of remembering for Control bees relative to insecticide bees” value in assay [4] (24 h retention) amounted to 3.4 times. For the same compound, the “proportion difference Control minus insecticide group for a PER response (Adjusted Wald test)” value in assay [4] (24 h retention) was 0.30. Also, in assay [4] (bumblebees), the “decision-making ratio (latency of response / learning score) relative to Control bees” value was “significant increase”.

On to `O=c1c(O)c(-c2ccc(O)cc2)oc2cc(O)cc(O)c12` [Kaemp, Kaempferol], for which, in assay [1], the “sensitivity (sucrose responsiveness, total PER score) relative to Control bees” value is recorded as “not significantly affected”. The “latency of response relative to Control bees” value in assay [2] is given as “not significantly different from Control”. In addition, the “learning score relative to Control bees” value in assay [2] (honey bees) was “not significantly different from Control bees”.

For `O=C(O)/C=C/c1ccc(O)cc1` [p-CouA, p-coumaric acid], the “latency of response relative to Control bees” value in assay [2] is “not significantly different from Control”. The “learning score relative to Control bees” value in assay [2] (honey bees) is given as “not significantly different from Control bees”.
